{"source": "patent US7078395B1", "about": "“Methods for treating or preventing cancer by preventing, inhibiting or arresting cell cycling” (priority 1999, dated 2006)", "key": {"[1]": {"target": "T1, steroid sulphatase (Homo sapiens, UniProt P08842)", "T1 sequence (P08842 22-583)": "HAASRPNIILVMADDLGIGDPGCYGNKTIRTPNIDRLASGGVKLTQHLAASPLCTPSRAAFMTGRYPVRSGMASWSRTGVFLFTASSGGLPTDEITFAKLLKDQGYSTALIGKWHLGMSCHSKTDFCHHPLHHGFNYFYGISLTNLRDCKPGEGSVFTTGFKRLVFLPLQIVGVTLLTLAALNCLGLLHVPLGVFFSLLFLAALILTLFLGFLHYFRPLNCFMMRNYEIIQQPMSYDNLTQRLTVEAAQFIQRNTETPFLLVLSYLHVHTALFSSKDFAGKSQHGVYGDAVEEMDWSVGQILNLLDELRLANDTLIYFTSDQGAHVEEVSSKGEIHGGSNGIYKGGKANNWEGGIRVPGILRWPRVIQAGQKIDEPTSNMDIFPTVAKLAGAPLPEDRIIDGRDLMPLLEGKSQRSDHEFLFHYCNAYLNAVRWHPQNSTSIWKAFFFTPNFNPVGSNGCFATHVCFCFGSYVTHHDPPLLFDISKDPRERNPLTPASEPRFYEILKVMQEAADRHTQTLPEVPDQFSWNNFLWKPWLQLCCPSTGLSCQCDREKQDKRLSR", "settings": "compared with EMATE (18, 19); cited from earlier work"}, "[2]": {"tested_on": "MCF-7 breast cancer cells", "assay": "Cell morphology by photomicrographs", "assay_type": "cell-based", "settings": "1 μM, 24 h", "procedure": "(§1) MCF-7 (ER+) and MDA-MB-231 (ER−) breast cancer cells were obtained from the American Type Culture Collection (Rockville, Md.). Cells were routinely cultured in 25 cm^2 culture flasks in Eagle's minimum essential medium (EMEM) with Hepes buffer (20 mM). This medium was supplemented with L-glutamine (2 mM), sodium hydrogen carbonate (10 mM), 1% non-essential amino acids and 5% (v/v) foetal calf serum (FCS). Before adding test compounds, cells were washed with phosphate-buffered saline (PBS) and treatments added in phenol-red free medium containing 2% stripped FCS and supplements. The effects of 2-MeOE1 or 2-MeOEMATE on the growth of MCF-7 cells was assessed using a Cell Titer 96 cell proliferation assay (Promega, Southampton, Hants, UK) according to the manufacturers' instructions. For this, cells (5000 per well) were cultured in medium containing phenol-red and 10% FCS and were exposed to a drug for 4 days before the assay was performed. For MDA-MB-231 cells, cell numbers were determined using a Coulter counter.\nPhotomicrographs of control and treated cells were taken under normal conditions of light and exposure using an Olympus SL35 Type 12 camera under an Olympus CK2 microscope (×100 magnification)."}, "[3]": {"tested_on": "MCF-7 cells", "assay": "Flow cytometry analysis of cell cycle distribution (propidium iodide)", "assay_type": "cell-based", "settings": "10 μM; for proportion of cells in the G1 phase: time-course study (untreated 66%)", "procedure": "Cells were cultured in the presence of 2-MeOE1, 2-MeOEMATE or vehicle for up to 48 h. To examine the reversibility of the effects of 2-MeOEMATE on the cell cycle, cells were treated for 24 h with the drug after which cells were washed and cultured in fresh medium without drug for a further 24 h period.\nTo prepare cells for analysis of DNA content, cells were trypsinised (0.25% trypsin, 0.02% EDTA), washed with PBS and fixed with 70% ethanol. Cells were collected by centrifugation, re-suspended in PBS (1-2×10^6 cells/ml) and treated with RNase A (0.1 mg/ml) and stained with propidium iodide (0.05 mg/ml) for 30 min at room temperature. Cells were analysed with a flow cytometer (FACscan, Becton Dickinson Immunocytormetry System, Bedford Mass.)."}, "[4]": {"tested_on": "MCF-7 breast cancer cells", "assay": "Cell Titer 96 cell proliferation assay, 4-day drug exposure", "assay_type": "cell-based", "procedure": "as §1"}, "[5]": {"settings": "(18, 19); cited from earlier work"}, "[6]": {"tested_on": "MCF-7 cells", "assay": "TUNEL analysis of apoptosis", "assay_type": "cell-based", "settings": "10 μM, 48 h", "from_the_text": "The ability of 2-MeOEMATE to induce apoptosis in MCF-7 cells was examined by TUNEL analysis using an in situ cell death detection kit (Boehringer Manheim UK Ltd., Lewes, East Sussex, UK). Cells were fixed and permeabilised according to the manufacturers' instructions. Stained apoptotic cells were quantitated by flow cytometry."}, "[7]": {"tested_on": "MCF-7 breast cancer cells", "assay": "Irreversible inhibition of cell growth, Stage 1 and Stage 2 (Coulter cell counter)", "assay_type": "cell-based", "settings": "for cell numbers, % of the control cell number, Stage 1: 6 days", "procedure": "MCF-7 breast cancer cells were seeded into multi-well culture plates at a density of 10^5 cells/well. Cells were allowed to attach and grown until about 30% confluent when they were treated as follows:\nCells were grown for 6 days in growth medium containing the above drugs with changes of medium/drug every 3 days. At the end of this period cell numbers were counted using a Coulter cell counter.\nAfter treatment of cells for a 6-day period with the above drugs cells were re-seeded at a density of 10^4 Cells/well. No further treatments were added. Cells were allowed to continue to grow for a further 6 days in the presence of growth medium. At the end of this period cell numbers were again counted.\nStages 1 and 2 described above were repeated using Control—no treatment, EMATE 20 μM and EMATE 5 μM.\nMCF-7 breast cancer cells were seeded into multi-well culture plates at a density of 10^5 cells/well. Cells were allowed to attach and grown until about 30% confluent when they were treated as follows: • Control—no treatment • Compound of Interest (COI) 20 μM\nCells were grown for 6 days in growth medium containing the COI with changes of medium/COI every 3 days. At the end of this period cell numbers were counted using a Coulter cell counter.\nAfter treatment of cells for a 6-day period with the COI cells were re-seeded at a density of 10^4 cells/well. No further treatments were added. Cells were allowed to continue to grow for a further 6 days in the presence of growth medium. At the end of this period cell numbers were again counted."}, "[8]": {"tested_on": "nitrosomethylurea-induced mammary tumours", "assay": "Growth of NMU-induced mammary tumours in intact rats", "assay_type": "in vivo, rat", "procedure": "The effect of 2-MeOEMATE on mammary tumour growth was examined in a preliminary study using Ludwig rats (Harlan Olac, Bicester, UK) in which tumours were induced by inoculation of NMU. Tumour development was monitored regularly and when 0.5-1.0 cm^3 in volume, animals received vehicle (propylene glycol, 200 μl/day, p.o.), 2-MeOEMATE (20 mg/kg/day, p.o.) or 2-MeOE1 (20 mg/kg/day, p.o.) daily for an 11 day period. Tumour length and width was measured with callipers and tumour volumes calculated as described (21)."}, "[9]": {"settings": "Homo sapiens, MCF7, 96 h, read-out: inhibition of proliferation of MCF-7 cells"}}, "note": "Where “and” joins values, the source holds several entries; their conditions need not be identical. Equal entries are not always repeated.", "data": [{"smiles": "COc1cc2c(cc1OS(N)(=O)=O)CCC1C2CC[C@]2(C)C(=O)CCC12", "note": "(stereo partly drawn) [2-MeOEMATE, 2-methoxyoestrone-3-O-sulphamate]", "values": [{"measurement": "potency as a steroid sulphatase inhibitor", "setting": "[1]", "result": "equipotent with EMATE"}, {"measurement": "effect on cell morphology", "setting": "[2]", "result": "significant increase in the number of rounded and detached cells"}, {"measurement": "time by which accumulation of cells in the G2/M phase was apparent", "setting": "[3]", "result": "≤ 12", "unit": "h"}, {"measurement": "proportion of cells in the G1 phase", "setting": "[3]; 12 h exposure", "result": 50, "unit": "%"}, {"measurement": "cell cycle distribution, G1", "setting": "[3]; 24 h", "result": 10}, {"measurement": "cell cycle distribution, G2/M", "setting": "[3]; 24 h", "result": 60}, {"measurement": "cell cycle distribution, S", "setting": "[3]; 24 h", "result": 8}, {"measurement": "cell cycle distribution, Sub-G1", "setting": "[3]; 24 h", "result": 22}, {"measurement": "cell cycle distribution, G1", "setting": "[3]; 24 h + 24 h drug-free culture", "result": 8}, {"measurement": "cell cycle distribution, G2/M", "setting": "[3]; 24 h + 24 h drug-free culture", "result": 57}, {"measurement": "cell cycle distribution, S", "setting": "[3]; 24 h + 24 h drug-free culture", "result": 7}, {"measurement": "cell cycle distribution, Sub-G1", "setting": "[3]; 24 h + 24 h drug-free culture", "result": 27}, {"measurement": "proportion of cells in the G1 phase", "setting": "[3]; 24 h exposure", "result": 23, "unit": "%"}, {"measurement": "cell cycle distribution, G1", "setting": "[3]; 48 h", "result": 14}, {"measurement": "cell cycle distribution, G2/M", "setting": "[3]; 48 h", "result": 58}, {"measurement": "cell cycle distribution, S", "setting": "[3]; 48 h", "result": 9}, {"measurement": "cell cycle distribution, Sub-G1", "setting": "[3]; 48 h", "result": 18}, {"measurement": "inhibition of proliferation of MCF-7 cells", "setting": "[4]; 10 μM, 4 days", "result": "no further effect on cell proliferation"}, {"measurement": "inhibition at 0.1 µM", "setting": "[4]; [9]", "result": 29, "unit": "%"}, {"measurement": "inhibition at 1 µM", "setting": "[4]; [9]", "result": 52, "unit": "%"}, {"measurement": "oestrogenicity", "setting": "[5]", "result": "devoid of oestrogenicity"}, {"measurement": "fluorescently labelled (TUNEL positive) cells as proportion of the cell population", "setting": "[6]", "result": "approximately 10%"}, {"measurement": "cell numbers, % of the control cell number, Stage 1", "setting": "[7]; 1 m (so in the source)", "result": 52, "unit": "%"}, {"measurement": "cell numbers, % of the control cell number, Stage 1", "setting": "[7]; 5 μm", "result": 43, "unit": "%"}, {"measurement": "effect on cell numbers, Stage 2 (irreversible growth inhibition)", "setting": "[7]; re-seeded after 6-day treatment, further 6 days without drug", "result": "severely growth restricted"}, {"measurement": "reduction in tumour volume", "setting": "[8]; 20 mg/kg/day, p.o., 11 days, individual animals", "result": "almost complete regression of ⅔ tumours and 8% and tumours regressed rapidly and were barely palpable and regressed almost completely"}, {"measurement": "regrowth of regressed tumours", "setting": "[8]; monitored for a further 33 days after 11-day dosing", "result": "no regrowth of tumours was detected"}]}]}
